# Measurements as given in US8735412B2, “Sulfoximine-substituted anilinopyrimidine derivatives as CDK inhibitors, the production thereof, and use as medicine” (Bayer Intellectual Property GmbH, priority 2008, dated 2014).
# pIC50: −log10 of the molar value. Read-outs that look alike come from different tables or passages of the source.
# What was measured:
# [1] = system: HeLa-MaTu cervical carcinoma cells; test: Proliferation assay (Assay 4), crystal violet staining; assay type: cell-based; conditions: Homo sapiens, 96 h, 4 days incubation; read-out: HeLa-MaTu (Assay 4) Concentration for 50% inhibition of cellular proliferation, IC50
# Method: 10.4 Assay 4: Proliferation Assay
# Cultivated human HeLa-MaTu cervical carcinoma cells (obtained from EPO-GmbH, Berlin) were plated at a density of 3000 cells/measuring point in a 96-well multititer is plate in 200 μl of growth medium (DMEM/HAMS F12, 2 mM L-glutamine, 10% fetal calf serum). After 24 hours the cells of one plate (zero-point plate) were stained with crystal violet (see below), whereas the medium of the other plates was replaced with fresh culture medium (200 μl), to which the test substances had been added at various concentrations (0 μM, and in the range 0.01-30 μM; the final concentration of the solvent dimethylsulfoxide was 0.5%). The cells were incubated for 4 days in the presence of the test substances. Cellular proliferation was determined by staining the cells with crystal violet: the cells were fixed by adding 20 μl/measuring point of an 11% glutaraldehyde solution for 15 min at room temperature. After washing the fixed cells with water three times, the plates were dried at room temperature. The cells were stained by adding 100 μl/measuring point of a 0.1% crystal violet solution (pH adjusted to pH3 by adding acetic acid). After washing the stained cells with water three times, the plates were dried at room temperature. The dye was dissolved by adding 100 μl/measuring point of a 10% acetic acid solution. The extinction was determined photometrically at a wavelength of 595 nm. The percentage change in cell growth was calculated by standardization of the measured values to the extinction values of the zero-point plate (=0%) and the extinction of the untreated (0 μM) cells (=100%). The measured data were standardized to 0% inhibition (cell proliferation without inhibitor) and 100% inhibition (zero-point plate). The IC50 values were determined by means of a 4-parameter fit using the company's own software.
# [2] = system: HeLa-MaTu human cervical carcinoma xenograft; test: HeLa-MaTu cervical tumor xenograft model on NMRI nude mice; assay type: in vivo; conditions: oral; for tolerability of the cyclic treatment regimen: 10 mg/kg; for response vs control in vivo at 10 mg/kg: Mus musculus, read-out: treatment/control ratio T/C (tumor weight)
# Method: HeLa-MaTu (EPO-GmbH, Berlin) human cervical carcinoma cells, which were grown in cell culture, were implanted subcutaneously in the flank of female NMRI nude mice. […] The study was terminated as soon as the tumors in one of the groups reached a size of approx. 150 mm^2.
# (§1) The growth-inhibiting effect of the compounds was tested in the HeLa-MaTu cervical tumor model as xenograft on NMRI nude mice. […] Treatment of the established tumors was begun on day 4 after inoculation of the tumors.
# as §1, §1
# (§2) The study was designed for determining the initial response of a human cervical carcinoma xenograft model to treatments with the 5-Br comparative substance V12. The growth-inhibiting effect of the compounds was tested in the HeLa-MaTu cervical tumor model as xenograft on NMRI nude mice. V12 was dissolved completely in the solubilizer 40% polyethylene glycol 400 (PEG 400)/60% water to a final concentration of 0.7 mg/ml (group 2), 0.85 mg/ml (group 3), or 1.0 mg/ml (group 4). Treatment of the established tumors was begun on day 4 after inoculation of the tumors.
# HeLa-MaTu (EPO-GmbH, Berlin) human cervical carcinoma cells, which were grown in cell culture, were implanted subcutaneously in the flank of female NMRI nude mice. […] The study was terminated as soon as the tumors in one of the groups reached a size of approx. 160 mm^2.
# (§3) The growth-inhibiting effect of the compounds was tested in the HeLa-MaTu cervical tumor model as xenograft on NMRI nude mice. […] Treatment of the established tumors was begun on day 5 after inoculation of the tumors.
# as §3, §3
# The following test groups were used: • Group 1: Control, treatment with solubilizer (40% PEG 400/60% water) • Group 2: Compound according to WO 2005/037800 prepared according to preparation V14 disclosed above • (6 mg/kg, oral, 2x daily on day 5, 6, 12, 13, 19, 20) • Group 3: Compound according to WO 2005/037800 prepared according to preparation V14 disclosed above • (8 mg/kg, oral, 2× daily on day 5, 6, 12, 13, 19, 20) • Group 4: Compound according to WO 2005/037800 prepared according to preparation V14 disclosed above • (10 mg/kg, oral, 2× daily on day 5, 6, 12, 13, 19, 20)
# as §2, with “substance V14.” for “substance V12.”, “mice. V14” for “mice. V12”, “of 0.6” for “of 0.7”, “2), 0.8” for “2), 0.85”, “day 5” for “day 4”
# CDK2/CycE = biological target: T1, CDK2/CycE (Homo sapiens, UniProt P24941); test: CDK2/CycE kinase assay (Assay 2); assay type: biochemical; conditions: 0.5 μM ATP, histon IIIS substrate; read-out: CDK2/CycE (Assay 2) Concentration for 50% inhibition of enzyme activity, IC50
# T1 construct: purchased ProQinase GmbH, Freiburg; host or cells: baculovirus-infected insect cells (Sf9)
# Method: 10.2 Assay 2: CDK2/CycE Kinase Assay
# Recombinant CDK2 and CycE-GST fusion proteins, purified from baculovirus-infected insect cells (Sf9), were purchased from ProQinase GmbH, Freiburg. Histon IIIS, used as kinase substrate, was purchased from the company Sigma. CDK2/CycE (50 ng/measuring point) was incubated for 10 min at 22° C. in the presence of various concentrations of test substances (0 μM, and within the range 0.01-100 μM) in assay buffer [50 mM Tris/HCl pH8.0, 10 mM MgCl2, 0.1 mM Na ortho-vanadate, 1.0 mM dithiothreitol, 0.5 μM adenosine triphosphate (ATP), 10 μg/measuring point histon IIIS, 0.2 μCi/measuring point ^33P-gamma ATP, 0.05% NP40, 1.25% dimethylsulfoxide]. The reaction was stopped by adding EDTA solution (250 mM, pH8.0, 15 μl/measuring point).
# From each reaction mixture, 15 μl was applied to P30 filter strips (from Wallac), and unincorporated ^33P-ATP was removed by washing the filter strips three times, for 10 min each time, in 0.5% phosphoric acid. After drying the filter strips for 1 hour at 70° C., the filter strips were covered with scintillator strips (MeltiLex™ A, from Wallac) and stoved for 1 hour at 90° C. The amount of incorporated ^33P (substrate phosphorylation) was determined by scintillation measurement in a gamma-radiation measuring instrument (Wallac). The measured data were standardized to 0% inhibition (enzyme reaction without inhibitor) and 100% inhibition (all assay components except enzyme). The IC50 values were determined by means of a 4-parameter fit using the company's own software.
SMILES,pIC50 [1],"tolerability of the cyclic treatment regimen ([2]; 2x daily on day 4, 5, 11, 12, 17, 18, 23, 24)","effect on tumor growth (in words) ([2]; 7, 8.5, 10 mg/kg, 2x daily on day 4, 5, 11, 12, 17, 18, 23, 24)","response vs control in vivo at 10 mg/kg ([2]; 672 h, 10 mg/kg (group 4), 2x daily on day 4, 5, 11, 12, 17, 18, 23, 24, day 28) [%]",pIC50 (CDK2/CycE),"reduction of tumor weight at the end of the study to % of the control group ([2]; 10 mg/kg (group 4), 2x daily on day 5, 6, 12, 13, 19, 20, day 20) [%]","tolerability of the cyclic treatment regimen ([2]; 2x daily on day 5, 6, 12, 13, 19, 20)","effect on tumor growth (in words) ([2]; 6, 8, 10 mg/kg, 2x daily on day 5, 6, 12, 13, 19, 20)","response vs control in vivo at 10 mg/kg ([2]; 480 h, 10 mg/kg (group 4), 2x daily on day 5, 6, 12, 13, 19, 20, day 20) [%]"
CCS(=N)(=O)c1ccc(Nc2ncc(Br)c(N[C@H](C)[C@@H](C)O)n2)cc1 (some centres unmarked) [Example V12],7.89,well-tolerated,dose-dependent weak inhibition of tumor growth,51,8.52,,,,
"C[C@@H](O)[C@@H](C)Oc1nc(Nc2ccc(S(=N)(=O)C3CC3)cc2)ncc1Br (single isomer, unassigned) [Example V14]",8.00,,,,8.15,44,well-tolerated,dose-dependent inhibition of tumor growth,44
